Values after ≈ are worked out from the molar mass of the structure shown. Like-named read-outs stand apart in the source and are kept apart here.
Legend:
[1] = Monkey oral bioavailability; details: in vivo, at 20 mg/kg dose
Caco-2 permeability = assay type: in vitro ADME; details: human
pKa of model compound = assay type: physicochemical
[2] = Polarized light microscopy of drug suspended in buffers with or without sodium chloride; assay type: physicochemical; details: in the presence of chloride ion
Procedure: The common ion effect was studied using dissolution and microscopic methods. The microscopic method was conducted with drug suspended in water, pH 1.2, pH 4 and pH 6.5 buffers with and without sodium chloride. The dissolution of the drug and its granulations were studied using three different 2-step dissolution methods which entails the following: Method #1: simple 2-step buffers at pH 4 from 0-30 minutes and at pH 6.5 from 30-90 minutes. Method #2: simple 2-step buffers with the presence of chloride ion in both steps. Method #3: simple buffer at pH 4 with presence of chloride ion from 0-30 minutes; and buffer with bile salts and surfactants at pH 6.5 from 30-90 minutes. The two steps represent fed stomach and intestinal conditions, respectively.
Formulation Preparation Bulk drug powders were wet granulated with and without excipients. Granules were dried and sized through a #18 mesh screen. Polarized Microscopic Observation Microscopic test was conducted with drug suspended in water, pH 1.2, 4, and 6.5 buffers with and without sodium chloride. Dissolution Test: Four dissolution media were tested. Results of these tests are shown in line-graph formats in FIGS. 3-7. Bulk drug powders were wet granulated with and without excipients. […]
An in-vivo dog study was conducted with beagle dogs (wt=12 kg, n=3). […] Serial of plasma samples were collected, extracted, and analyzed by LC/MS/MS. […]

Solubility = assay type: physicochemical
Food effect = details: in vivo
log P of model compound = assay type: physicochemical

bioavailability [1]: 15%
Papp (Caco-2 permeability): 0.5 ×10⁻⁶ cm/s
pKa (pKa of model compound): 6.8
solubility (Solubility; at pH 6.8, read-out: Intrinsic solubility): 10 µg/mL (≈ 22.8 µM)
solubility (Solubility; water, pH 4, water, read-out: Solubility of salt in water): 2600 µg/mL
solubility (Solubility; water, pH 5.4, water, read-out: Solubility of salt in water): 200 µg/mL
solubility (Solubility; water, pH 6.5, water, read-out: Solubility of salt in water): 60 µg/mL
Positive food effect (Food effect): 4 ×
logP (log P of model compound): 0.7
Compound: CC(=O)NC[C@H]1CN(c2ccc(-c3ccc(CNCc4cnn[nH]4)cc3)c(F)c2)C(=O)O1 [model compound, N-[3-(2-fluoro-4′-{[(3H-[1,2,3]triazol-4-ylmethyl)-amino]-methyl}-biphenyl-4-yl)-2-oxo-oxazolidin-5-(S)-ylmethyl]-acetamide]
microscopic observation of aggregates [2]: formed aggregates in the presence of chloride ion

From patent US9409896B2, “Sustained release pharmaceutical compositions comprising an antibacterial agent” (Melinta Therapeutics, Inc., priority 2010, dated 2016)
